Test results from patent publication US12403129B2, “Isotope-enriched 3-amino-1-propanesulfonic acid derivatives for the treatment of cerebrovascular disease” (RISEN (SUZHOU) PHARMA TECH CO., LTD., priority 2021, dated 2025).

Tests used:
[1] = tested on: neuronal cells in hippocampal CA1 area and CA3 area and cerebral cortex; assay: Neuronal cell morphology in ischemia-reperfusion dementia mice; assay type: in vivo, C57BL/6J mice; details: compared with the model group
Experimental: (§1) 140 healthy C57BL/6J mice, including 70 males and 70 females, were used. 1% Pentobarbital Sodium (50 mg/kg) was injected intraperitoneally to anesthetize the mice. The back position was fixed, the neck hair was removed, and the common carotid arteries were cut along the middle of the neck after iodophor disinfection. The common carotid arteries were separated, clamped with a noninvasive artery clamp for 15 minutes, released for 10 minutes, and then clamped for 10 minutes. Penicillin powder was then applied to suture muscles and skin. The sham operation group was not clamped, and other operations were the same as for the model group. […] Mice were divided into 6 groups: sham operation group, model group, positive control group (donepezil) and test compound group (different doses). Test compounds were administered by gavage to each group on the next day of modeling. The compound group was given compounds once a day in the morning and evening, and the volume of each gavage was 10 ml/kg. Half of the animals in the sham operation group and the model group were given the same amount of distilled water, and half of the animals were given the same amount of 1% sodium carboxymethylcellulose solution. […]
(§2) The main pathological index included: investigation of the improvement of learning and memory impairment by the compound in the pathogenic model of cerebral ischemia-reperfusion using behavioral experimental methods such as Y maze, new object discrimination, spontaneous activity, Morris water maze and passive avoidance experiment (dark avoidance); investigation of the ultrastructure of nerve cells (including nucleus, mitochondria and synapse) by HE staining and immunofluorescence; detection of expression of synaptic associated proteins SYP and PSD95 by Western blotting; and detection of expression of apoptosis-related proteins Bcl-2 and Bax by Western blotting. […] Experimental results were analyzed statistically using IBM SPSS 21.0 software. […]

MBP = MBP expression in ischemia-reperfusion dementia mice; assay type: in vivo, C57BL/6J mice; details: compared with the model group
Experimental: (§3) 140 healthy C57BL/6J mice, including 70 males and 70 females, were used. 1% Pentobarbital Sodium (50 mg/kg) was injected intraperitoneally to anesthetize the mice. The back position was fixed, the neck hair was removed, and the common carotid arteries were cut along the middle of the neck after iodophor disinfection. The common carotid arteries were separated, clamped with a noninvasive artery clamp for 15 minutes, released for 10 minutes, and then clamped for 10 minutes. Penicillin powder was then applied to suture muscles and skin. The sham operation group was not clamped, and other operations were the same as for the model group. […]
as §2

SYP = SYP expression by Western blotting, multiple cerebral infarction dementia rats; assay type: in vivo, SD rats; details: compared with the model group, p<0.05
Experimental: (§4) 135 SPF grade SD rats (75 females, 60 males, weighing 200-220 g) were used. Anesthesia was performed by intraperitoneal injection of 3.5% chloral hydrate (350 mg/kg). After dorsal fixation, neck hair removal and iodophor disinfection, animals were cut along the middle of the neck to separate the right common carotid artery, external carotid artery and internal carotid artery. […]
(§5) The main pathological indexes included investigation of the improvement of learning and memory impairment in the dementia model animal by test compound using behavioral experimental methods such as Y maze, new object discrimination, Morris water maze and passive avoidance test (dark avoidance); investigation of the protective effect of test compound on mitochondria by detecting the content of ATP in hippocampus and cortex of rats; and investigation of levels of oxidative stress in the rat brain by measuring activity of superoxide dismutase (SOD, which is an oxygen free-radical scavenger), glutathione peroxidase (GSH-Px, which scavenges lipid peroxides induced by reactive oxygen species and —OH), nitric oxide synthase (NOS), malondialdehyde (MDA), and nitric oxide (NO). […] Expression of synaptic associated proteins SYP and PSD95 was detected by Western blotting. […] Experimental results were statistically analyzed using IBM SPSS 21.0 software. […]

[2] = tested on: nerve cells (nucleus, mitochondria and synapse); assay: Ultrastructure of nerve cells (transmission electron microscope), multiple cerebral infarction dementia rats; assay type: in vivo, SD rats; details: compared with the model group, p<0.05
Experimental: Compound 4, 120 mg/kg, bid; D. Compound 4, 240 mg/kg, bid; E. Compound 4, 480 mg/kg, bid; F. Donepezil, 0.9 mg/kg.
as §4
The main pathological indexes included investigation of the improvement of learning and memory impairment in the dementia model animal by test compound using behavioral experimental methods such as Y maze, new object discrimination, Morris water maze and passive avoidance test (dark avoidance); investigation of the protective effect of test compound on mitochondria by detecting the content of ATP in hippocampus and cortex of rats; and investigation of levels of oxidative stress in the rat brain by measuring activity of superoxide dismutase (SOD, which is an oxygen free-radical scavenger), glutathione peroxidase (GSH-Px, which scavenges lipid peroxides induced by reactive oxygen species and —OH), nitric oxide synthase (NOS), malondialdehyde (MDA), and nitric oxide (NO). […] Expression of synaptic associated proteins SYP and PSD95 was detected by Western blotting. […]

nitric oxide (NO) = assay: NO concentration in cerebral cortex, multiple cerebral infarction dementia rats; assay type: in vivo, SD rats; details: compared with the model group, p<0.05
Experimental: (§6) Compound 4, 120 mg/kg, bid; D. Compound 4, 240 mg/kg, bid; E. Compound 4, 480 mg/kg, bid; F. Donepezil, 0.9 mg/kg. Compared with sham operation group: ### P<0.001; Compared with the model group: ** P<0.01, *** P<0.001.
(§7) 135 SPF grade SD rats (75 females, 60 males, weighing 200-220 g) were used. Anesthesia was performed by intraperitoneal injection of 3.5% chloral hydrate (350 mg/kg). After dorsal fixation, neck hair removal and iodophor disinfection, animals were cut along the middle of the neck to separate the right common carotid artery, external carotid artery and internal carotid artery. The common carotid artery was temporarily clamped by the artery clamp, the left external carotid artery was retrogradely punctured to the beginning of the left internal carotid artery with a pediatric scalp needle, and then 0.4 ml of embolic normal saline suspension was slowly injected with a syringe (the preparation of embolic normal saline suspension was as follows: blood was collected from the abdominal aorta of the same rat, dried naturally in a 37° C. incubator, and prepared for 80-200 minutes to form a blood clot; during application, 0.3 ml normal saline was added to every 10 mg blood clot), and the common carotid artery clamp was opened at the same time, then the external carotid artery was ligated and the skin was sutured. […]

[3] = tested on: nitric oxide synthase (NOS); assay: NOS activity in cerebral cortex, multiple cerebral infarction dementia rats; assay type: in vivo, SD rats; details: compared with the model group, p<0.05
Experimental: as §6, §7

PSD95 [4] = assay: PSD95 expression by Western blotting, multiple cerebral infarction dementia rats; assay type: in vivo, SD rats; details: compared with the model group, p<0.05
Experimental: as §4, §5

PSD95 [5] = assay: PSD95 expression in hippocampus by Western blotting, ischemia-reperfusion dementia mice; assay type: in vivo, C57BL/6J mice
Experimental: Compound 4, 85 mg/kg, bid; D. Compound 4, 170 mg/kg, bid; E. Compound 4, 340 mg/kg, bid; F. Donepezil, 1.3 mg/kg. Compared with sham operation group: ### P<0.001; Compared with the model group: ** P<0.01, *** P<0.001.
as §1, with “ml/kg.” for “ml/kg. Half of the animals in the sham operation group and the model group were given the same amount of distilled water, and half of the animals were given the same amount of 1% sodium carboxymethylcellulose solution.”

Bcl-2 = Bcl-2 expression by Western blotting, ischemia-reperfusion dementia mice; assay type: in vivo, C57BL/6J mice
Experimental: as §3, §2

[6] = tested on: rat model of dementia caused by multiple cerebral infarction; assay: Cognitive tests in rat model of dementia caused by multiple cerebral infarction; assay type: in vivo, SD rats
Experimental: 135 SPF grade SD rats (75 females, 60 males, weighing 200-220 g) were used. Anesthesia was performed by intraperitoneal injection of 3.5% chloral hydrate (350 mg/kg). After dorsal fixation, neck hair removal and iodophor disinfection, animals were cut along the middle of the neck to separate the right common carotid artery, external carotid artery and internal carotid artery. The common carotid artery was temporarily clamped by the artery clamp, the left external carotid artery was retrogradely punctured to the beginning of the left internal carotid artery with a pediatric scalp needle, and then 0.4 ml of embolic normal saline suspension was slowly injected with a syringe (the preparation of embolic normal saline suspension was as follows: blood was collected from the abdominal aorta of the same rat, dried naturally in a 37° C. incubator, and prepared for 80-200 minutes to form a blood clot; during application, 0.3 ml normal saline was added to every 10 mg blood clot), and the common carotid artery clamp was opened at the same time, then the external carotid artery was ligated and the skin was sutured. In the sham operation group, 0.4 ml normal saline was used instead of embolic suspension. The experimental animals were randomly divided into 6 groups according to weight balance, as follows: sham operation group, model group, positive control group (donepezil) and test compound group (different doses). There were 12-14 rats in each group. The animals in each group began to give drugs by gavage after modeling until the end of the experiment. The animals underwent Y maze experiment on the 16th day of administration, new object discrimination experiment on the 17th-20th day, Morris water maze experiment on the 22nd-27th day, and dark avoidance experiment on the 28th-29th day. On the 30th day, animals were sacrificed and tissues harvested for analysis.
The main pathological indexes included investigation of the improvement of learning and memory impairment in the dementia model animal by test compound using behavioral experimental methods such as Y maze, new object discrimination, Morris water maze and passive avoidance test (dark avoidance); investigation of the protective effect of test compound on mitochondria by detecting the content of ATP in hippocampus and cortex of rats; and investigation of levels of oxidative stress in the rat brain by measuring activity of superoxide dismutase (SOD, which is an oxygen free-radical scavenger), glutathione peroxidase (GSH-Px, which scavenges lipid peroxides induced by reactive oxygen species and —OH), nitric oxide synthase (NOS), malondialdehyde (MDA), and nitric oxide (NO). The ultrastructure of nerve cells (including nucleus, mitochondria and synapse) was investigated using immunofluorescence and transmission electron microscope. Expression of synaptic associated proteins SYP and PSD95 was detected by Western blotting. Experimental results for compound 4 on the concentration of nitric oxide (NO), the activity of nitric oxide synthase (NOS) and the ultrastructure of nerve cells in the rat model of dementia caused by multiple cerebral infarction are shown in FIGS. 7-11. Experimental results were statistically analyzed using IBM SPSS 21.0 software. The differences between groups were compared by one-way ANOVA or two-way ANOVA (water maze directional navigation) and LSD test.

[7] = Test group vs model group, n = 15-17, dose not stated
[8] = Test group vs model group, n = 12-14, dose not given
[9] = first listing in Table VII, Test group vs model group, n = 12-14

Compound: [2H]C([2H])(CCS(=O)(=O)O)NC(=O)[C@@H](N)C(C)C [compound 4, 3-((L-valyl)amino)-3,3-dideuterium-1-propanesulfonic Acid]
- arrangement and morphology of neuronal cells in hippocampal CA1 area and CA3 area [1]: significantly improved
- deep staining pyknosis of nuclei in cerebral cortex [1]: significantly reduced
- deep staining pyknosis of nuclei ([1]; hippocampal CA1 and CA3 area): significantly reduced
- expression of MBP in hippocampal CA1 area and cerebral cortex (MBP): increased
- SYP expression (SYP): significantly increased
- ultrastructure of nerve cells [2]: improved
- NO content (nitric oxide (NO)): significantly reduced
- NOS activity [3]: significantly reduced
- PSD95 expression (PSD95 [4]): significantly increased
- PSD95 expression, p compared with model group (PSD95 [5]; [7]): p < 0.001
- expression of PSD95 (PSD95 [5]; compared with the model group): increased
- Bcl-2 expression, p compared with model group (Bcl-2; [7]): p < 0.01
- expression of Bcl-2 (Bcl-2; compared with the model group): increased
- Percentage of swimming distance, p compared with model group [6, 8]: p < 0.001
- Spontaneous alternating response rate, p compared with model group [6, 8]: p < 0.001
- Swimming time in target quadrant, p compared with model group [6, 8]: p < 0.05
- The incubation period for entering the darkroom, p compared with model group [6, 8]: p < 0.05
- Times of threading, p compared with model group [6, 8]: p < 0.05
- Discrimination coefficient for new objects, p compared with model group [6, 9]: p < 0.05
- Priority index for new objects, p compared with model group [6, 9]: p < 0.05
- working memory, image recognition and memory, spatial memory and long-term memory impairment ([6]; rat model of dementia caused by multiple infarction): may improve
- discrimination coefficient to new objects in the new object discrimination experiment ([6]; rats, gavage): can improve
- escape latency of directional navigation ([6]; rats, gavage): can improve
- number of errors entering the dark room in the dark avoidance experiment ([6]; rats, gavage): can improve
- number of times of crossing the platform ([6]; rats, gavage): can improve
- percentage of swimming distance in the target quadrant ([6]; rats, gavage): can improve
- priority index to new objects in the new object discrimination experiment ([6]; rats, gavage): can improve
- spontaneous alternating reaction rate in the Y maze ([6]; rats, gavage): can improve
- swimming time in the target quadrant ([6]; rats, gavage): can improve
